Experiment [1] addresses human CB1 receptor (hCB1) (Homo sapiens, UniProt P21554). Description: cell-based. The format is cell-based. In a few lines: (§1)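 Readout: LANCE TR-FRET cAMP, back-calculated from a concurrent standard curve and scaled between forskolin-only and forskolin + 1 μM CP55,940 wells. EC50 and intrinsic activity came from four-parameter fits.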
The target in the next experiment is T1, rat CB2 receptor (rCB2) (Rattus norvegicus, UniProt Q9QZN9).
T1 sequence (Q9QZN9 1-360): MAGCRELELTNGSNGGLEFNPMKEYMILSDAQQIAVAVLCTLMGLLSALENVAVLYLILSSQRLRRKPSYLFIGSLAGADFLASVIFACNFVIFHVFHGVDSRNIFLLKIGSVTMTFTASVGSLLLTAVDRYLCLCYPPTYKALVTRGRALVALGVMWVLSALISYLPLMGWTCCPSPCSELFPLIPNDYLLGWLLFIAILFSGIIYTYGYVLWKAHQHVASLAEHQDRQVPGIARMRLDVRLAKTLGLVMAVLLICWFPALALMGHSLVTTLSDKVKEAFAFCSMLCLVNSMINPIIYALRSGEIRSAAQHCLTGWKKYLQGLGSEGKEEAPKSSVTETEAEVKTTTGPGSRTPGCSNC
Put plainly: cell-based. The following applies: for +/− RCB2: agonist or inverse agonist at rCB2. It is filed as cell-based. The method, boiled down:
as §1

Setting [2] is: groups >100 nM-10 μM and >10 μM, cAMP, CHO-K1 hCB1, read-out: EC50 HCB1.
Setting [3] is: groups >100 nM-10 μM and >10 μM, cAMP, CHO-K1 rCB2, read-out: EC50 RCB2.

Like-named read-outs stand apart in the source and are kept apart here. Where only a bound is given, the exact number is not on record here.

human CB1 receptor (hCB1), sequence (P21554 whole entry): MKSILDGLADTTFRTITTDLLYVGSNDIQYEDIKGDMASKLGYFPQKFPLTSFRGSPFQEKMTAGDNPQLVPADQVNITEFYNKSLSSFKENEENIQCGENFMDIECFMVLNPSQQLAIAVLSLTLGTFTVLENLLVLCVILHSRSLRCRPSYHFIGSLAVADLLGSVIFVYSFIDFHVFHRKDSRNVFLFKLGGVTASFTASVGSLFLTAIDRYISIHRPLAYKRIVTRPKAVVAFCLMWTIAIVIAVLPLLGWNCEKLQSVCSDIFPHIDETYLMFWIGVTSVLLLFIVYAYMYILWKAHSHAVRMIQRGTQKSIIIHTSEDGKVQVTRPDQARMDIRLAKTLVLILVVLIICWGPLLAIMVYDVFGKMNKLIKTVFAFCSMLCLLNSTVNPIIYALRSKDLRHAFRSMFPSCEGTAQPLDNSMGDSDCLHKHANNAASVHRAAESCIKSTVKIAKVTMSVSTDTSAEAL

With `CN1CCn2c(-c3ccc(Cl)cc3F)nc(C(=O)N3CCC(n4c(=O)[nH]c5cc(Cl)ccc54)CC3)c2C1` [Compound 212, 5-chloro-1-(1-(3-(4-chloro-2-fluorophenyl)-7-methyl-5,6,7,8-tetrahydroimidazo[1,5-a]pyrazine-1-carbonyl)piperidin-4-yl)-1H-benzo[d]imidazol-2(3H)-one], in experiment [1] (setting [2]), the EC50 (in general, the concentration needed to bring the measured effect to its halfway point) was more than 10000 nM. In addition, the “+/− RCB2” value on rat CB2 receptor (rCB2) was “−”.
With `CN1CCn2c(-c3ccc(Cl)cc3F)nc(C(=O)NC3CCN(S(C)(=O)=O)CC3)c2C1` [Compound 213, 3-(4-chloro-2-fluorophenyl)-7-methyl-N-(1-(methylsulfonyl)piperidin-4-yl)-5,6,7,8-tetrahydroimidazo[1,5-a]pyrazine-1-carboxamide], the EC50 (in experiment [1] (setting [2]); on rat CB2 receptor (rCB2) (setting [3])) was more than 10000 nM in each case.
In turn, `CN1CCn2c(-c3ccc(Cl)cc3F)nc(C(=O)N3CCC4(CC3)C(=O)NCN4c3ccccc3)c2C1` [Compound 214, 8-(3-(4-chloro-2-fluorophenyl)-7-methyl-5,6,7,8-tetrahydroimidazo[1,5-a]pyrazine-1-carbonyl)-1-phenyl-1,3,8-triazaspiro[4.5]decan-4-one] came in with an EC50 in experiment [1] of more than 10000 nM. Further, at rat CB2 receptor (rCB2), the “+/− RCB2” value was “−”.
As to `CN1CCn2c(-c3ccc(Cl)cc3F)nc(C(=O)N3CCC(n4c(=O)[nH]c5ccccc54)CC3)c2C1` [Compound 215, 1-(1-(3-(4-chloro-2-fluorophenyl)-7-methyl-5,6,7,8-tetrahydroimidazo[1,5-a]pyrazine-1-carbonyl)piperidin-4-yl)-1H-benzo[d]imidazol-2(3H)-one], the EC50 in experiment [1] (setting [2]) was more than 10000 nM. Further, the “+/− RCB2” value at rat CB2 receptor (rCB2) is reported as “−”.
Consider `CNC(=O)c1cccc(NC(=O)c2nc(-c3ccc(Cl)cc3F)n3c2CN(C)CC3)c1` [Compound 216, 3-(4-chloro-2-fluorophenyl)-7-methyl-N-(3-(methylcarbamoyl)phenyl)-5,6,7,8-tetrahydroimidazo[1,5-a]pyrazine-1-carboxamide], for which the EC50 in experiment [1] (setting [2]) was more than 10000 nM. Also, the “+/− RCB2” value at rat CB2 receptor (rCB2) is given as “−”.
Turning to `CNC(=O)c1ccccc1NC(=O)c1nc(-c2ccc(Cl)cc2F)n2c1CN(C)CC2` [Compound 217], the EC50 (in experiment [1] (setting [2]); at rat CB2 receptor (rCB2) (setting [3])) was more than 10000 nM in each case.
Turning to `CNC(=O)c1ccc(NC(=O)c2nc(-c3ccc(Cl)cc3F)n3c2CN(C)CC3)cc1` [Compound 218], the half-maximal effective concentration (EC50) (in experiment [1] (setting [2]); on rat CB2 receptor (rCB2) (setting [3])) was more than 10000 nM each time.
On to `CN1CCn2c(-c3ccc(Cl)cc3F)nc(C(=O)Nc3ccc(S(=O)(=O)N4CCOCC4)cc3)c2C1` [Compound 219], for which the EC50 in experiment [1] (setting [2]) was more than 10000 nM. For the same molecule, the “+/− RCB2” value on rat CB2 receptor (rCB2) is “−”.
For the molecule `CN1CCn2c(-c3ccc(Cl)cc3F)nc(C(=O)N3CCC4(CCN(C)C4=O)CC3)c2C1` [Compound 221, 8-(3-(4-chloro-2-fluorophenyl)-7-methyl-5,6,7,8-tetrahydroimidazo[1,5-a]pyrazine-1-carbonyl)-2-methyl-2,8-diazaspiro[4.5]decan-1-one], the EC50 (in experiment [1]; on rat CB2 receptor (rCB2)) was more than 10000 nM each time.
On to `CN1CCn2c(-c3ccc(Cl)cc3F)nc(C(=O)N3CCC(N4C(=O)Cc5ccccc54)CC3)c2C1` [Compound 222, 1-(1-(3-(4-chloro-2-fluorophenyl)-7-methyl-5,6,7,8-tetrahydroimidazo[1,5-a]pyrazine-1-carbonyl)piperidin-4-yl)indolin-2-one], for which the EC50 (in experiment [1]; at rat CB2 receptor (rCB2)) was more than 10000 nM in each case.
Consider `Cc1nnc(C)n1C1CCN(C(=O)c2nc(-c3ccc(Cl)cc3F)n3c2CN(C)CC3)CC1` [Compound 223, (3-(4-chloro-2-fluorophenyl)-7-methyl-5,6,7,8-tetrahydroimidazo[1,5-a]pyrazin-1-yl)(4-(3,5-dimethyl-4H-1,2,4-triazol-4-yl)piperidin-1-yl)methanone], for which the EC50 (in experiment [1]; on rat CB2 receptor (rCB2)) was more than 10000 nM each time.
Turning to `COC(=O)c1cccc(CNC(=O)c2nc(-c3ccc(Cl)cc3F)n3c2CN(C)CC3)c1` [Compound 224, methyl 3-((3-(4-chloro-2-fluorophenyl)-7-methyl-5,6,7,8-tetrahydroimidazo[1,5-a]pyrazine-1-carboxamido)methyl)benzoate], in experiment [1] (setting [2]), the EC50 was more than 10000 nM. For the same molecule, the “+/− RCB2” value on rat CB2 receptor (rCB2) is on record as “−”.
Turning to `CN1CCn2c(-c3ccc(Cl)cc3F)nc(C(=O)N3CCC(C(N)=O)(N4CCOCC4)CC3)c2C1` [Compound 225], the EC50 (in experiment [1]; at rat CB2 receptor (rCB2)) was more than 10000 nM throughout.
For `CN1CCn2c(-c3ccc(Cl)cc3F)nc(C(=O)N3CCC(C(=O)N4CCOCC4)CC3)c2C1` [Compound 226, (3-(4-chloro-2-fluorophenyl)-7-methyl-5,6,7,8-tetrahydroimidazo[1,5-a]pyrazin-1-yl)(4-(morpholine-4-carbonyl)piperidin-1-yl)methanone], the EC50 (in experiment [1]; on rat CB2 receptor (rCB2)) was more than 10000 nM throughout.
`CN1CCn2c(-c3ccc(Cl)cc3F)nc(C(=O)N3CCC(n4cc(-c5ccccc5)[nH]c4=O)CC3)c2C1` [Compound 227, 1-(1-(3-(4-chloro-2-fluorophenyl)-7-methyl-5,6,7,8-tetrahydroimidazo[1,5-a]pyrazine-1-carbonyl)piperidin-4-yl)-4-phenyl-1H-imidazol-2(3H)-one]: the EC50 in experiment [1] (setting [2]) was more than 10000 nM. Besides, the “+/− RCB2” value on rat CB2 receptor (rCB2) was “−”.
`CN1CCn2c(-c3ccc(Cl)cc3F)nc(C(=O)NCc3ccc4[nH]c(=O)[nH]c4c3)c2C1` [Compound 228, 3-(4-chloro-2-fluorophenyl)-7-methyl-N-((2-oxo-2,3-dihydro-1H-benzo[d]imidazol-5-yl)methyl)-5,6,7,8-tetrahydroimidazo[1,5-a]pyrazine-1-carboxamide]: the EC50 in experiment [1] (setting [2]) was more than 10000 nM. Further, the “+/− RCB2” value at rat CB2 receptor (rCB2) is “−”.
For `CN1CCn2c(-c3ccccc3)nc(C(=O)NCCCO)c2C1` [Compound 229, N-(3-hydroxypropyl)-7-methyl-3-phenyl-5,6,7,8-tetrahydroimidazo[1,5-a]pyrazine-1-carboxamide], the EC50 (in experiment [1]; at rat CB2 receptor (rCB2)) was more than 10000 nM in each case.
As for `CN1CCn2c(-c3ccccc3)nc(C(=O)NC(C)(C)CO)c2C1` [Compound 230, N-(1-hydroxy-2-methylpropan-2-yl)-7-methyl-3-phenyl-5,6,7,8-tetrahydroimidazo[1,5-a]pyrazine-1-carboxamide], the EC50 (in experiment [1] (setting [2]); on rat CB2 receptor (rCB2) (setting [3])) was more than 10000 nM each time.
With `CC(CO)NC(=O)c1nc(-c2ccccc2)n2c1CN(C)CC2` (stereo not drawn) [Compound 231, N-(1-hydroxypropan-2-yl)-7-methyl-3-phenyl-5,6,7,8-tetrahydroimidazo[1,5-a]pyrazine-1-carboxamide], the EC50 (in experiment [1] (setting [2]); at rat CB2 receptor (rCB2) (setting [3])) was more than 10000 nM throughout.
In the case of `CCC(CO)NC(=O)c1nc(-c2ccccc2)n2c1CN(C)CC2` (stereo not drawn) [Compound 232, N-(1-hydroxybutan-2-yl)-7-methyl-3-phenyl-5,6,7,8-tetrahydroimidazo[1,5-a]pyrazine-1-carboxamide], the EC50 (in experiment [1]; on rat CB2 receptor (rCB2)) was more than 10000 nM in each case.
As to `CCCC(CO)NC(=O)c1nc(-c2ccccc2)n2c1CN(C)CC2` (stereo not drawn) [Compound 233, N-(1-hydroxypentan-2-yl)-7-methyl-3-phenyl-5,6,7,8-tetrahydroimidazo[1,5-a]pyrazine-1-carboxamide], the EC50 (in experiment [1]; at rat CB2 receptor (rCB2)) was more than 10000 nM each time.
In experiment [1], `CN1CCn2c(-c3ccccc3)nc(C(=O)NCC3OCCO3)c2C1` [Compound 234, N-((1,3-dioxolan-2-yl)methyl)-7-methyl-3-phenyl-5,6,7,8-tetrahydroimidazo[1,5-a]pyrazine-1-carboxamide] showed an EC50 of more than 10000 nM. Further, the “+/− RCB2” value on rat CB2 receptor (rCB2) is “+”.
With `CN1CCn2c(-c3ccccc3)nc(C(=O)NC3(CO)CCCC3)c2C1` [Compound 235, N-(1-(hydroxymethyl)cyclopentyl)-7-methyl-3-phenyl-5,6,7,8-tetrahydroimidazo[1,5-a]pyrazine-1-carboxamide], the EC50 (in experiment [1]; at rat CB2 receptor (rCB2)) was more than 10000 nM in each case.
For `CN1CCn2c(-c3ccccc3)nc(C(=O)NCC3CCOCC3)c2C1` [Compound 236, 7-methyl-3-phenyl-N-((tetrahydro-2H-pyran-4-yl)methyl)-5,6,7,8-tetrahydroimidazo[1,5-a]pyrazine-1-carboxamide], the EC50 (in experiment [1]; at rat CB2 receptor (rCB2)) was more than 10000 nM throughout.
`Cc1cnc(CNC(=O)c2nc(-c3ccccc3)n3c2CN(C)CC3)cn1` [Compound 237, 7-methyl-N-((5-methylpyrazin-2-yl)methyl)-3-phenyl-5,6,7,8-tetrahydroimidazo[1,5-a]pyrazine-1-carboxamide]: the EC50 (in experiment [1]; on rat CB2 receptor (rCB2)) was more than 10000 nM in each case.
On to `CNC(=O)[C@@H](NC(=O)c1nc(C2=CCCC2)n2c1CN(C)CC2)C(C)(C)C` [Compound 238, (S)-3-cyclopentenyl-N-(3,3-dimethyl-1-(methylamino)-1-oxobutan-2-yl)-7-methyl-5,6,7,8-tetrahydroimidazo[1,5-a]pyrazine-1-carboxamide], for which the “+/− HCB1” value in experiment [1] (agonist or inverse agonist at hCB1) is on record as “+”. The EC50 on rat CB2 receptor (rCB2) was more than 10000 nM.
On to `CNC(=O)[C@@H](NC(=O)c1nc(-c2cncnc2)n2c1CN(C)CC2)C(C)(C)C` [Compound 239, (S)-N-(3,3-dimethyl-1-(methylamino)-1-oxobutan-2-yl)-7-methyl-3-(pyrimidin-5-yl)-5,6,7,8-tetrahydroimidazo[1,5-a]pyrazine-1-carboxamide], for which the EC50 (in experiment [1] (setting [2]); on rat CB2 receptor (rCB2) (setting [3])) was more than 10000 nM each time.

The record behind these values is US7517874B2 (priority 2007, dated 2009).
